Values after ≈ are worked out from the molar mass of the structure shown. Read-outs that look alike come from different tables or passages of the source.
How the values were obtained:
PAO1-FtsZ = target: T1, PAO1-FtsZ (Pseudomonas aeruginosa, UniProt P47204); experiment: FtsZ GTPase activity assay (kinetics and inhibition); assay type: biochemical; conditions: read-out: IC50 toward PAO1-FtsZ
T1 construct: His-tag of pET-28a followed by PreScission site (His-tag inferred from the vector; the site is encoded in the forward primer) (N); made in house; host or cells: E. coli BL21(DE3)
Method: The gene ftsZ (BCAL3457) was amplified from B. cenocepacia FCF19 using the primers pet28presFtsZfor (5′-[…]-3′) and pet28ftsZrev (5′-[…]-3′). The gene ftsZ of P. aeruginosa was amplified from the genomic DNA using the primers ftsZPAOfor28a (5′-[…] 3′) and ftsZPAOrev28a (5′-[…]-3′). The PCR products were cloned into the pET-28a vector (Novagen) using the In-Fusion HD Cloning kit (TaKaRa), according to the manufacturer's instructions.
All the recombinant FtsZ proteins were expressed at 20°C overnight in E. coli BL21(DE3) cells, upon induction with 0.5 mM IPTG, and purified using the same protocol assessed for the wild-type B. cenocepacia FtsZ (Hogan et al., [2018]).
GTPase enzyme activity was determined using a pyruvate kinase/L-lactic dehydrogenase (PK/LDH) spectrophotometric coupled assay (Ingerman and Nunnari, [2005]). The assays were performed at 30°C, in a reaction mixture containing […] Hepes pH 7.5, 5 mM MgCl2, 5 mM KCl, 10 U PK/LDH, 0.25 mM NADH, 0.25 mM PEP, and 5–10 μM FtsZ, and initiated by the addition of 0.5 mM GTP. Alternatively, GTPase activity was determined by measuring the release of phosphate using the malachite green assay (Baykov et al., [1988]).
Steady-state kinetic analysis was performed by assaying the activity at different GTP concentrations and parameters determined by fitting the data to the Michaelis-Menten equation using Origin 8 software. […]

P. aeruginosa PAO1 = experiment: MIC, 2-fold microdilution, resazurin method; assay type: cell-based; conditions: Pseudomonas aeruginosa, PAO1
E. coli ATCC 25922 = experiment: MIC, 2-fold microdilution, resazurin method; assay type: cell-based; conditions: Escherichia coli, ATCC25922
B. cenocepacia J2315 = experiment: MIC, 2-fold microdilution, resazurin method; assay type: cell-based, Burkholderia cenocepacia; conditions: Burkholderia cenocepacia
B. cenocepacia FCF19 = experiment: MIC, 2-fold microdilution, resazurin method; assay type: cell-based, Burkholderia cenocepacia; conditions: Burkholderia cenocepacia; clinical isolate FCF19
B. cenocepacia FCF22 = experiment: MIC, 2-fold microdilution, resazurin method; assay type: cell-based, Burkholderia cenocepacia; conditions: Burkholderia cenocepacia; clinical isolate FCF22
[1] = target: Burkholderia cenocepacia purified FtsZ protein (Burkholderia cenocepacia, UniProt B4E5Y7); experiment: biochemical; assay type: biochemical; conditions: Yes/No
Chain of Burkholderia cenocepacia purified FtsZ protein (B4E5Y7 entry or part of it): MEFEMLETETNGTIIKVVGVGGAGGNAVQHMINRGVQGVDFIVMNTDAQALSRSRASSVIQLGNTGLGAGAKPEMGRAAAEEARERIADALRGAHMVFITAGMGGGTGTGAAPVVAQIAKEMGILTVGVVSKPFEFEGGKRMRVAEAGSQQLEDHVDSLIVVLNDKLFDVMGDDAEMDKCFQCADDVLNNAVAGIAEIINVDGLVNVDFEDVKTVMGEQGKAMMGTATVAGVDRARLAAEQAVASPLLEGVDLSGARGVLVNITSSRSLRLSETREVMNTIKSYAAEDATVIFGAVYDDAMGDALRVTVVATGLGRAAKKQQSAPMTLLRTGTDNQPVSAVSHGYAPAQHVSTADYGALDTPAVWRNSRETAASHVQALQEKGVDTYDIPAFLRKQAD

T1 sequence (P47204 2-316): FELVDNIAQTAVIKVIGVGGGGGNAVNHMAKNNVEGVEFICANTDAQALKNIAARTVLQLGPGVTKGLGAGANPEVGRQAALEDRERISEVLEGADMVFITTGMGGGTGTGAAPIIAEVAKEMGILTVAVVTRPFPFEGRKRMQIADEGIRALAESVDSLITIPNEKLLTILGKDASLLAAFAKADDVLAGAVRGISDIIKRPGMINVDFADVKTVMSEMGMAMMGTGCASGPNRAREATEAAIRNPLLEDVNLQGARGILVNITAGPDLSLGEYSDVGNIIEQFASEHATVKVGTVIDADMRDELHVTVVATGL

**Q.** For `COC(=O)CSc1ccc2nsnc2c1[N+](=O)[O-]` [C109, methyl [(4-nitro-2,1,3-benzothiadiazol-5-yl)thio]acetate], which IC50 (PAO1-FtsZ) is on record?
**A.** 3.5 ± 1.9 µM

**Q.** What about the MIC (P. aeruginosa PAO1; LB, 24 h, read-out: MIC P. aeruginosa PAO1) of the same compound?
**A.** 128 µg/mL (≈ 449 µM)

**Q.** And the MIC (P. aeruginosa PAO1; Supplementary Table 1, read-out: MIC (µg/ml) P. aeruginosa PAO1)?
**A.** 128 µg/mL (≈ 449 µM)

**Q.** And the MIC (E. coli ATCC 25922; LB, 24 h, read-out: MIC E. coli 25922)?
**A.** 8 µg/mL (≈ 28 µM)

**Q.** And the MIC (E. coli ATCC 25922; Supplementary Table 1, read-out: MIC (µg/ml) E. coli 25922)?
**A.** 8 µg/mL (≈ 28 µM)

**Q.** What about the MIC (B. cenocepacia J2315; J2315, read-out: MIC (µg/ml) B. cenocepacia J2315) of the same compound?
**A.** 8 µg/mL (≈ 28 µM)

**Q.** What about the MIC (B. cenocepacia J2315; J2315, LB, 48 h, read-out: MIC B. cenocepacia J2315) of the same compound?
**A.** 8 µg/mL (≈ 28 µM)

**Q.** What about the MIC (B. cenocepacia FCF19) of the same compound?
**A.** 128 µg/mL (≈ 449 µM)

**Q.** What about the MIC (B. cenocepacia FCF22) of the same compound?
**A.** 256 µg/mL (≈ 897 µM)

**Q.** And the “Inhibition of Bc FtsZ At 100 μM” value ([1]; 100 μM compound)?
**A.** Yes

**Q.** What about the “Inhibits B. cenocepacia FtsZ GTPase at 100µM?” value ([1]; 100 µM, Supplementary Table 1) of the same compound?
**A.** Yes
